# Data: patent US20120009280A1, “METHOD OF REDUCING THE RATE OF DEGRADATION OF A BIOLOGICAL MATERIAL” (Bio-Energy Ingredients Limited, priority 2009, published 2012)
# Tests used:
# [1] = system: total micro-organism; experiment: Total microbial (plate) count of spent brewer's / wet distiller's grains stored at ambient temperature; type: cell-based; set-up: total microbial count: unit: cfu/gram
# Excerpt: Samples of spent brewer's grains were drawn from the discharge line of a brewery in South Africa. The samples, packed in dry ice in a cold box, were transported over a distance of approximately 40 kilometres to a laboratory. At the laboratory, the samples were thoroughly mixed and initially split into a first portion (Portion 1) and a second portion (Portion 2). The second portion was about twice the size of the first. Portion 1 was left untreated. Material produced from Portion 1 and Portion 2 is designated below using the code “AR” (as received).
# Portion 2 was placed on a clean, standard, laboratory screen deck with 1.4 mm apertures supported from below. As much water as possible was manually squeezed out with a clean flat plastic disc and the sample was then manually remixed after the squeezing. The squeezed material was then split into a third portion (Portion 3) and a fourth portion (Portion 4) of approximately the same size. Material produced from Portion 3 and Portion 4 is designated below using the code “SO” (squeezed).
# Portion 4 was added to a high speed kitchen food-shredder and shredded for about two minutes. The shredded material was then returned to the 1.4 mm aperture screen and squeezed again, as described above, and manually remixed again after the second squeezing to produce a shredded and squeezed portion (Portion 5). Material produced from Portion 5 is designated below using the code “SH” (shredded).
# (§1) Samples of Portion 1 (“AR”), Portion 3 (“SO”) and Portion 5 (“SH”) were then delivered to a microbiological testing facility about 15 kilometres from the treatment laboratory. Each was tested for initial total microbial, yeast and mould counts, respectively.
# (§2) Separate untreated samples were similarly stored under insect-proof screens at ambient temperature for seven days (as shown in Tables 1 and 2). During the trial period the ambient temperature ranged from 11 to 33 degrees C.
# After exposure to the environment for seven days, all of the samples were tested at a South African National Accreditation System (SANAS) approved microbiological testing facility. Each was tested for total micro-organism, yeast and mould counts to determine the affect of the various treatments.
# Samples of spent brewer's grains were drawn from the discharge line of a brewery in South Africa.
# (§3) At the laboratory, the samples were thoroughly mixed and initially split into a first portion (Portion 1) and a second portion (Portion 2). Portion 1 was left untreated. A sample of Portion 1, was delivered immediately to a microbiological testing facility about 15 kilometres away from the treatment laboratory and was tested for initial total microbial, yeast and mould counts, respectively.
# Samples from Portion 2 were subjected to treatment with varying amounts of a powdered, commercially-available calcium oxide containing approximately 94% calcium oxide (CaO) as shown in Table 32. The treatments varied from 2.5 to 10% (w/w) calcium oxide addition. The samples were stored in batches (according to the calcium oxide treatment) under insect-proof screens at ambient temperature for fifty six days. […] During the trial period the ambient temperature ranged from 10 to 30 degrees C. As this period was the southern hemisphere spring/early summer, the humidity as well as ambient temperatures varied widely.
# (§4) Samples from each treatment were drawn every seven days. No further calcium oxide treatment or agitation took place after the initial mix. In each case the entire sample was isolated and delivered to the microbiological testing facility.
# (§5) In this trial the same source of wet distiller's grains (again with now partial water removal prior to treatment) was treated.
# as §5
# [2] = system: total micro-organism; experiment: as above; type: cell-based; details: dose 10% w/w; distiller's grains not de-watered, Examples 16-18
# [3] = system: mould; experiment: Mould count of spent brewer's / wet distiller's grains stored at ambient temperature; type: cell-based
# Procedure: as §1, §2
# (§6) The free moisture content on the initial spent brewer's grains was determined to be 78.1% m/m. After exposure to the environment for seven days, all of the samples were tested at a South African National Accreditation System (SANAS) approved microbiological testing facility. Each was tested for total micro-organism, yeast and mould counts to determine the affect of the various treatments. A similar procedure to that described in K. A. Rosentrater et al, Food Bioprocess Technol (2008) was used for the microbiological evaluation.
# as §3, with “respectively. No water removal prior to treatment was done in this experiment as was the case in Example 8 wherein a similar wet material was partially dewatered by pressing and the residue treated with 10% (w/w/) calcium oxide.” for “respectively.”
# Samples from Portion 2 were subjected to treatment with varying amounts of a powdered, commercially-available calcium oxide containing approximately 94% calcium oxide (CaO) as shown in Table 32. […] The samples were stored in batches (according to the calcium oxide treatment) under insect-proof screens at ambient temperature for fifty six days. Separate untreated samples were similarly stored under insect-proof screens at ambient temperature for a total of 56 days. During the trial period the ambient temperature ranged from 10 to 30 degrees C. As this period was the southern hemisphere spring/early summer, the humidity as well as ambient temperatures varied widely.
# as §6, with “79.4%” for “78.1%”
# as §4
# The calcium oxide treatment trial described in Example 9 wherein wet distiller's grains were treated with 2.5%, 5% and 10.0% calcium oxide, respectively, versus untreated material was repeated using lower doses of calcium oxide. In this trial the same source of wet distiller's grains (again with now partial water removal prior to treatment) was treated. Also, the same protocol as described in Example 9 was applied, but at lower doses of calcium oxide i.e. 0.5%, 1.0%, 1.5%, 2.0% and 2.5%, respectively, versus untreated material.
# In this trial the same source of wet distiller's grains (again with now partial water removal prior to treatment) was treated. Also, the same protocol as described in Example 9 was applied.
# [4] = system: yeast; experiment: Yeast count of spent brewer's / wet distiller's grains stored at ambient temperature; type: cell-based
# [5] = pH of suspensions of grain samples in distilled water or PBS; details: 1% (w/w) in distilled water
# Procedure: The untreated sample (A) was compared visually against the corresponding quicklime-treated sample (B).
# On Day 7, 10 g amounts of each sample were suspended in either 90 ml PBS or 90 ml sterile distilled water and shaken for 10 minutes. The pH of each suspension was then measured and compared.
# On Day 9, 10 g of each sample was suspended in 90 ml PBS and shaken for 10 minutes. The pH was measured.
# [6] = dose 15% w/w, distiller's grains not de-watered, Examples 16-18
compound,measurement,setting,value
[Ca+2].[O-]CC(O)CO.[O-]CC(O)CO [Ca-DGO (g)],preservation time with total microbial counts <100 cfu/g,[1]; [6],≧9 weeks
same,preservation time with total microbial counts <1000 cfu/g,[1]; [6],≧9 weeks
same,preservation time with total microbial counts <100 cfu/g,[2],≧4 weeks
same,preservation time with total microbial counts <1000 cfu/g,[2],≧4 weeks
[Ca+2].[O-]CC(O)CO.[O-]CC(O)CO [Ca-DGO (p)],preservation time with total microbial counts <10 cfu/g,[1]; [6],≧9 weeks
same,preservation time with total microbial counts <100 cfu/g,[1]; [6],≧9 weeks
same,preservation time with total microbial counts <1000 cfu/g,[1]; [6],≧9 weeks
same,preservation time with total microbial counts <100 cfu/g,[2],≧2 weeks
same,preservation time with total microbial counts <1000 cfu/g,[2],≧3 weeks
[Ca+2].[O-]CC(O)CO.[O-]CC(O)CO [Ca-DGO powder + granules (1:1)],Total plate count,"[1]; dose 15% (w/w), week 0",540 cfu/gram
same,Total plate count,"[1]; dose 15% (w/w), week 1",50 cfu/gram
same,Total plate count,"[1]; dose 15% (w/w), week 2",710 cfu/gram
same,Total plate count,"[1]; dose 15% (w/w), week 3",70 cfu/gram
same,Total plate count,"[1]; dose 15% (w/w), week 4",<10 cfu/gram
same,Total plate count,"[1]; dose 15% (w/w), week 6",150 cfu/gram
same,Total plate count,"[1]; dose 15% (w/w), week 7",660 cfu/gram
same,Total plate count,"[1]; dose 15% (w/w), week 8",4200 cfu/gram
same,Total plate count,"[1]; dose 15% (w/w), week 9",45000 cfu/gram
same,Mould Count,"[3]; dose 15% (w/w), week 1",<10 cfu/gram
same,Mould Count,"[3]; dose 15% (w/w), week 2",<10 cfu/gram
same,Mould Count,"[3]; dose 15% (w/w), week 3",<10 cfu/gram
same,Mould Count,"[3]; dose 15% (w/w), week 4",<10 cfu/gram
same,Mould Count,"[3]; dose 15% (w/w), week 5",<10 cfu/gram
same,Mould Count,"[3]; dose 15% (w/w), week 6",<10 cfu/gram
same,Mould Count,"[3]; dose 15% (w/w), week 7",<10 cfu/gram
same,Mould Count,"[3]; dose 15% (w/w), week 8",<10 cfu/gram
same,Mould Count,"[3]; dose 15% (w/w), week 9",<10 cfu/gram
same,Yeast Count,"[4]; dose 15% (w/w), week 1",<10 cfu/gram
same,Yeast Count,"[4]; dose 15% (w/w), week 2",<10 cfu/gram
same,Yeast Count,"[4]; dose 15% (w/w), week 3",<10 cfu/gram
same,Yeast Count,"[4]; dose 15% (w/w), week 4",<10 cfu/gram
same,Yeast Count,"[4]; dose 15% (w/w), week 5",20 cfu/gram
same,Yeast Count,"[4]; dose 15% (w/w), week 6",<10 cfu/gram
same,Yeast Count,"[4]; dose 15% (w/w), week 7",<10 cfu/gram
same,Yeast Count,"[4]; dose 15% (w/w), week 8",<10 cfu/gram
same,Yeast Count,"[4]; dose 15% (w/w), week 9",<10 cfu/gram
same,pH,"[5]; dose 15% (w/w), week 1",11.47
same,pH,"[5]; dose 15% (w/w), week 2",7.57
same,pH,"[5]; dose 15% (w/w), week 3",7.88
same,pH,"[5]; dose 15% (w/w), week 4",9.29
same,pH,"[5]; dose 15% (w/w), week 5",6.78
same,pH,"[5]; dose 15% (w/w), week 6",9.27
same,pH,"[5]; dose 15% (w/w), week 7",7.23
same,pH,"[5]; dose 15% (w/w), week 8",9.18
same,pH,"[5]; dose 15% (w/w), week 9",8.93
[Ca+2].[O-]CC(O)CO.[O-]CC(O)CO [Ca-DGO powder],Total plate count,"[1]; dose 15% (w/w), week 0",40 cfu/gram
same,Total plate count,"[1]; dose 15% (w/w), week 1",80 cfu/gram
same,Total plate count,"[1]; dose 15% (w/w), week 3",100 cfu/gram
same,Total plate count,"[1]; dose 15% (w/w), week 4",10 cfu/gram
same,Total plate count,"[1]; dose 15% (w/w), week 6",50 cfu/gram
same,Total plate count,"[1]; dose 15% (w/w), week 7",40 cfu/gram
same,Total plate count,"[1]; dose 15% (w/w), week 8",70 cfu/gram
same,Total plate count,"[1]; dose 15% (w/w), week 9",10 cfu/gram
same,Mould Count,"[3]; dose 15% (w/w), week 0",<10 cfu/gram
same,Mould Count,"[3]; dose 15% (w/w), week 1",<10 cfu/gram
same,Mould Count,"[3]; dose 15% (w/w), week 2",<10 cfu/gram
same,Mould Count,"[3]; dose 15% (w/w), week 3",<10 cfu/gram
same,Mould Count,"[3]; dose 15% (w/w), week 4",<10 cfu/gram
same,Mould Count,"[3]; dose 15% (w/w), week 5",<10 cfu/gram
same,Mould Count,"[3]; dose 15% (w/w), week 6",<10 cfu/gram
same,Mould Count,"[3]; dose 15% (w/w), week 7",<10 cfu/gram
same,Mould Count,"[3]; dose 15% (w/w), week 8",<10 cfu/gram
same,Mould Count,"[3]; dose 15% (w/w), week 9",350 cfu/gram
same,Yeast Count,"[4]; dose 15% (w/w), week 0",<10 cfu/gram
same,Yeast Count,"[4]; dose 15% (w/w), week 1",<10 cfu/gram
same,Yeast Count,"[4]; dose 15% (w/w), week 2",<10 cfu/gram
same,Yeast Count,"[4]; dose 15% (w/w), week 3",<10 cfu/gram
same,Yeast Count,"[4]; dose 15% (w/w), week 4",<10 cfu/gram
same,Yeast Count,"[4]; dose 15% (w/w), week 5",<10 cfu/gram
same,Yeast Count,"[4]; dose 15% (w/w), week 6",<10 cfu/gram
same,Yeast Count,"[4]; dose 15% (w/w), week 7",<10 cfu/gram
same,Yeast Count,"[4]; dose 15% (w/w), week 8",<10 cfu/gram
same,Yeast Count,"[4]; dose 15% (w/w), week 9",<10 cfu/gram
same,pH,"[5]; dose 15% (w/w), week 0",11.50
same,pH,"[5]; dose 15% (w/w), week 1",11.73
same,pH,"[5]; dose 15% (w/w), week 2",7.33
same,pH,"[5]; dose 15% (w/w), week 3",7.38
same,pH,"[5]; dose 15% (w/w), week 4",8.83
same,pH,"[5]; dose 15% (w/w), week 6",9.18
same,pH,"[5]; dose 15% (w/w), week 8",9.14
same,pH,"[5]; dose 15% (w/w), week 9",9.07
"[Ca+2].[O-]CC(O)CO.[O-]CC(O)CO [calcium diglyceroxide granules, calcium diglyceroxide]",total microbial count,"[1]; granules 10% (w/w), 2 week time point",below 10
same,total microbial count,"[1]; granules 10% (w/w), 3 week time point",540
same,total microbial count,"[1]; granules 10% (w/w), 4 week time point",60
same,total microbial count,"[1]; granules 10% (w/w), 5 week time point",650
same,effective period,"[1]; granules 10% (w/w), Example 18",~7 weeks
Ca(OH2,Total plate count,"[1]; 6.6% (w/w) powder, week 1",420 cfu/gram
same,Total plate count,"[1]; 6.6% (w/w) powder, week 2",140 cfu/gram
same,Total plate count,"[1]; 6.6% (w/w) powder, week 3",640 cfu/gram
same,Total plate count,"[1]; 6.6% (w/w) powder, week 4",170 cfu/gram
same,Total plate count,"[1]; 6.6% (w/w) powder, week 5",20 cfu/gram
same,Mould Count,"[3]; 6.6% (w/w) powder, week 1",10 cfu/gram
same,Mould Count,"[3]; 6.6% (w/w) powder, week 2",10 cfu/gram
same,Mould Count,"[3]; 6.6% (w/w) powder, week 3",10 cfu/gram
same,Mould Count,"[3]; 6.6% (w/w) powder, week 4",10 cfu/gram
same,Mould Count,"[3]; 6.6% (w/w) powder, week 5",10 cfu/gram
same,Yeast Count,"[4]; 6.6% (w/w) powder, week 1",10 cfu/gram
same,Yeast Count,"[4]; 6.6% (w/w) powder, week 2",10 cfu/gram
same,Yeast Count,"[4]; 6.6% (w/w) powder, week 3",10 cfu/gram
same,Yeast Count,"[4]; 6.6% (w/w) powder, week 4",120 cfu/gram
same,Yeast Count,"[4]; 6.6% (w/w) powder, week 5",10 cfu/gram
same,pH,"[5]; 6.6% (w/w) powder, week 1",11.55
same,pH,"[5]; 6.6% (w/w) powder, week 2",11.26
same,pH,"[5]; 6.6% (w/w) powder, week 3",12.10
same,pH,"[5]; 6.6% (w/w) powder, week 4",8.23
same,pH,"[5]; 6.6% (w/w) powder, week 5",11.47
